Results on one substance are retold here after patent EP3459551A1, “USE OF ARSENIC TRIOXIDE IN THE PREVENTION OR TREATMENT OF DISEASES ASSOCIATED WITH TYPE I […] ACTIVATION” (Medsenic, priority 2017, dated 2019).

One data set deals with human pDCs. Briefly: Viability of human pDCs (Fixable Viability Dye, flow cytometry). It counts as cell-based. The following applies: 24h of culture. As for the experimental part: (§1) pDCs were isolated from fresh peripheral blood mononuclear cells (PBMCs) by magnetic selection. Cell viability, phenotype and intracellular cytokine analyses were performed with flow cytometry. ELISA was used to analyze the cytokine concentration in supernatants.
First, the effect of ATO on the viability of human pDCs was investigated. […] (% of living pDCs: 56.36±6.44% with 0µM vs 32.02±7.12% with 1µM of ATO, p=0.039)
For orientation: Flow cytometry measures light scatter and fluorescence of single cells or particles in a stream.

Data set [1] has as its system pDCs after TLR9 activation. Briefly: Cytokine and chemokine secretion by pDCs after TLR9 activation (ELISA of supernatants). It counts as cell-based, human. Conditions: 0.5µM of ATO, 24h, n=4. As for the experimental part:
as §1
Then, the effect of low dose ATO (corresponding to a non-lethal, therapeutic dose) on cytokine and chemokine secretion by pDCs after TLR9 activation was studied. ELISA test of supernatants of sorted pDCs cultured with ATO for 24h were studied (n=4).
Background: An ELISA detects its analyte on a solid surface through an enzyme-linked reagent.

A further data set relates to activated pDCs. Briefly: Phenotype of activated pDCs (flow cytometry of maturation markers). It is filed as cell-based, human. As for the experimental part:
as §1
Given the above results, it was addressed whether activated pDCs phenotype could be similarly impacted by ATO treatment.

The subject of data set [2] is CD4+ naïve T cells co-cultured with ATO-treated activated pDCs. Briefly: Mixed lymphocyte reaction (MLR) of pDCs and CD4+ naïve T cells: T cell proliferation. It is filed as cell-based, human. The following applies: pDCs treated with 0.5µM of ATO, n=4; 0µM control 44.97±2.53%. As for the experimental part: as §1
In order to evaluate whether ATO can influence the capability of pDCs to activate T cells, mixed lymphocyte reaction (MLR) of pDCs and CD4+ naïve T cells were performed.

In a further data set the test system is naïve CD4+ T cells. The data set can be described thus: pDC capacity to polarize naïve CD4+ T cells (intracellular staining and ELISA of MLR supernatants). It counts as cell-based, human. The following applies: pDCs previously treated with ATO. As for the experimental part: as §1
In addition, the effect of ATO treatment on pDC capacity to polarize naïve CD4+ T cells was assessed.

Setting [3] is: 24h culture with non-lethal doses of ATO.

As to arsenic trioxide [ATO], the “% of living pDCs” value in the data set with human pDCs (1µM of ATO, 0µM control 56.36±6.44%, p=0.039) is reported as 32.02±7.12%. Also, the “ATO concentration that significantly decreased viability of both non-activated and activated pDCs” value in the data set with human pDCs is on record as at least 1 µM. The substance further displayed an IL-6 secretion in data set [1] (0µM control 2.31 ±0.39ng/ml, p=0.029) of 1.66 ± 0.32 ng/mL. For the same substance, the TNF-α secretion in data set [1] (0µM control 6.23±0.92ng/ml, p=0.005) is 3.99 ± 0.79 ng/mL. This substance showed a CXCL10 secretion in data set [1] (0µM control 13.06±0.98ng/ml, p=0.036) of 9.44 ± 0.97 ng/mL. The substance further showed an IFN-α secretion in data set [1] (0µM control 53.24±6.61ng/ml, p=0.004) of 25.81 ± 7.70 ng/mL. Further, in the data set on activated pDCs (0.5µM of ATO, 24h, n=4, 0µM control 61.44±2.37%, p=0.005), the “PD-L1+ pDCs” value is 73.27 ±3.72%. In addition, in the data set with activated pDCs (setting [3]), the “% of CD86+ and CCR7+ pDCs” value is given as “significant decrease”; the “relative fluorescence intensity (RFI) of CD80, CD86, and HLA-DR expressions” value was “significant decrease”. Further, the “RFI for PD-L1 expression” value in the data set with activated pDCs (24h culture with non-lethal doses of ATO, p=0.09) is recorded as “increase”. Besides, the “% of proliferating T cells” value in data set [2] was 37.98±2.11%. In the data set with naïve CD4+ T cells (ELISA), the “IL-10 concentration in the supernatants of MLR” value is on record as “no change” and the “IL-17, IL-22 concentrations in the supernatants of MLR” value is “significant decrease”. Besides, the “IL-22 positive cells in T cells” value in the data set with naïve CD4+ T cells (intracellular staining, untreated 11.67%) was determined as 7.22%. Further, in the data set on naïve CD4+ T cells (intracellular staining, untreated 41.13%), the “IFN-γ positive cells in T cells” value is recorded as 29.09%. Further, the “TNF-α positive cells in T cells” value in the data set with naïve CD4+ T cells (intracellular staining, untreated 47.10%) is 35.40%.
